PubChem BioAssay AID588653 (The Scripps Research Institute Molecular Screening Center, 2011)

target: Epidermal growth factor receptor (Homo sapiens) (UniProt P00533); assay: change in phospho-EGFR protein amount, up or down, late-stage follow-up, counter-screen for KLF5 inhibitor project, HT29 cells, chemiluminescent western blot, powder samples (AID 588653); conditions: p-EGFR western blot, 24 h, at 10 µM
Sequence (P00533 whole entry, looked up): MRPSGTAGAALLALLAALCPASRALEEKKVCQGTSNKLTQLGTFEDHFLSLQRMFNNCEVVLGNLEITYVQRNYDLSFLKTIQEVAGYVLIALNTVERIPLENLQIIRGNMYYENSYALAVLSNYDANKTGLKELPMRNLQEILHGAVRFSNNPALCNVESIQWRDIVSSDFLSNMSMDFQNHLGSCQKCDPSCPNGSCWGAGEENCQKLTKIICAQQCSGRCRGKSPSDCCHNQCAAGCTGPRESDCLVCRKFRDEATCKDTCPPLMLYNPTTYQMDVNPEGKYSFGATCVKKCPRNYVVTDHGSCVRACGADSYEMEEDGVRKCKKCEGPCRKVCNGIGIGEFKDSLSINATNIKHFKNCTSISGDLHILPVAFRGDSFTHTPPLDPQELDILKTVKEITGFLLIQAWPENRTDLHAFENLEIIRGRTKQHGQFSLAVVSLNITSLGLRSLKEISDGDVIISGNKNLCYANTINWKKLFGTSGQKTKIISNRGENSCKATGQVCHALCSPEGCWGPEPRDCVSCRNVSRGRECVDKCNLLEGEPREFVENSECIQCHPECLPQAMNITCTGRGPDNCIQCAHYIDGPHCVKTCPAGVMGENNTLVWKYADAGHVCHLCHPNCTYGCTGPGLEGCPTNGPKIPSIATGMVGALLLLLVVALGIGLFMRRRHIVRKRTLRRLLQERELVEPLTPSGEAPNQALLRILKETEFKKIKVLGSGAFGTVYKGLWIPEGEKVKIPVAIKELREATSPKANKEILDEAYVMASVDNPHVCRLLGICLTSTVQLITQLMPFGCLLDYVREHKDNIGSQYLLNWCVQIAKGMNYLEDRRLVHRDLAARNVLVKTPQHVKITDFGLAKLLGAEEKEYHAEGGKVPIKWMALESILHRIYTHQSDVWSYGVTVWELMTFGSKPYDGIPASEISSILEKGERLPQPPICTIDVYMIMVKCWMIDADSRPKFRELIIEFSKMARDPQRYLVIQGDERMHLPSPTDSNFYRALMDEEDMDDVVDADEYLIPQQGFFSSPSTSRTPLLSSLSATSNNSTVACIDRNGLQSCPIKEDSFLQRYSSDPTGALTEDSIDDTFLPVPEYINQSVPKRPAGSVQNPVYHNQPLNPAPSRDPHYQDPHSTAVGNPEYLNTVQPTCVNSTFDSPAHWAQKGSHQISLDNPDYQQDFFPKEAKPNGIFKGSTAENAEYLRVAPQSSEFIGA

inhibition [%]	Structure (SMILES)
-47.5	CN(C(=O)COC(=O)/C=C/c1cccc([N+](=O)[O-])c1)C1CCS(=O)(=O)C1 (stereo not drawn)
-130	CN(C(=O)CNC(=O)/C=C/c1cccc(Cl)c1)C1CCS(=O)(=O)C1 (stereo not drawn)
-116	CN(C(=O)CNC(=O)/C=C/c1cccc(Cl)c1)C1CCS(=O)(=O)CC1
